Measured values as given in PMC9313812, “The Pseudo‐Natural Product Rhonin Targets RHOGDI” (Angewandte Chemie (International Ed. in English), 2022).

Tests used:
RHOGDI1 = target: T1, RHOGDI1 (Homo sapiens, UniProt P52565); assay: Catch-and-release proteomics with lysine-reactive probe STPyne; type: binding; details: 100 µM compound, 30 µM STPyne, HEK293T lysate
T1 construct: GST; made in house; host or cells: E. coli
Description: Supplementary Table S11: Extracted list of STPyne PC cleaved RHOGDI peptides identified by catch-and-release proteomics. HEK293T lysate overexpressing RHOGDI-F was treated with 100 µM Rhonin or DMSO, followed by 30 µM STPyne. Asterisks indicate […]
(also on this page, place not known: S 11: catch -and-release RHOGDI -F DMS O, Modified lysine position Average ratio intensity STPyne-Rhonin-100 µM/DMSO SD ratio intensity STPyne-Rhonin-100 µM/DMSO 15) […]
(1 picture or pasted object on this page, not shown here)
Samples were acidified to a final concentration of 5% acetic acid, desalted over a self-packed C18 spin column, and dried. Peptides were resuspended in water with 0.1 % formic acid (FA) and analyzed using EASY-nLC 1200 nano-UHPLC coupled to Q Exactive HF-X Quadrupole-Orbitrap mass spectrometer (Thermo Scientific). The chromatography column consisted of a 45 cm long, 75 μm i.d. microcapillary capped by a 5 μm tip and packed with ReproSil -Pur 120 C18-AQ 2.4 μm beads (Dr. Maisch GmbH). LC solvents were 0.1 % FA in water (Buffer A) and 0.1 % FA in 90 % MeCN: 10 % water (Buffer B). […] The MS data was analyzed with MaxQuant[11] and searched against the human proteome (Uniprot), a common list of contaminants (included in MaxQuant) and the amino acid sequence of recombinant RHOGDI. […]

[1] = tested on: GTP-bound RHO GTPases (RHOA, RAC1, CDC42); assay: G-LISA activation assays; type: cell-based; details: 10 μM, 24 h
Description: 40,000 x g for 30 min at 4°C. Supernatants were collected as cytoplasmic fraction and pellets were resuspended into a homogenization buffer (0.25 M sucrose, 20 mM Tris/HCl pH 7.4, 25 mM KCl, 5 mM MgCl2) and further centrifuged (2 h at 100,000 x g) using an iodixanol (OptiPrep, Axis Shield) gradient solution. Obtained fractions were used for immunoblotting.
NIH/3T3 cells were seeded in a 96 plate (10,000 cell per well/ plate name: Essen Bioscience NO 4379). NIH/3T3 cells were grown till 80% confluence and then serum starved (0 % FCS) for 24 h. Scratch was performed using the Incucyte Woundmaker Tool. Next, 10 µM Rhonin was added to the wells. As controls, 2 µg/ml RHO inhibitor I (cat#CT04/ cytoskeleton) and 0.5% DMSO were used. Cell migration was monitored using IncuCyte ZOOM for a period of 48 h. The images were analyzed by the Incucyte Scratch Wound Analysis Software.
G-LISA activation assays for RHOA, RAC1 and CDC42 […]
GTPase primary antibody (RAC1, CDC42 or RHOA) was added and the tubes and were incubated for 45 min at room temperature. […] Absorption was detected at 490 nm using a plate reader (Tecan Sparks).
Aqueous solubility of compounds was assessed by determination of the kinetic solubility of a test compound in aqueous buffer compared to a solution in organic solvent (acetonitrile). […]

T1 sequence (P52565 whole entry): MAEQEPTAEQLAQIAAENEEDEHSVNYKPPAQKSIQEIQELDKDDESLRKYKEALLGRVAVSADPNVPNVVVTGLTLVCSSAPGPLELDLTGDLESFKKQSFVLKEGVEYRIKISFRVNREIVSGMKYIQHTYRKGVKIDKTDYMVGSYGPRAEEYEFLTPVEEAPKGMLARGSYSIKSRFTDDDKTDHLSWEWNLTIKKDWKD

COC(=O)C1(C(CC(=O)c2cccnc2)c2ccccc2)N=C(c2ccc(Br)cc2)C2C(=O)N(C)C(=O)C21 (centres unmarked) [7l]
STPyne labeling of RHOGDI1 lysines in presence of compound (in words) (RHOGDI1): lysines 186 and 199 in RHOGDI1 were less efficiently labeled
Levels of GTP-bound RHO GTPases (in words) [1]: increased
